From patent publication US20250188110A1, “SPECIFIC SMALL MOLECULE INHIBITORS THAT BLOCK KMT9 METHYLTRANSFERASE ACTIVITY AND FUNCTION” (ALBERT-LUDWIGS-UNIVERSITÄT FREIBURG, priority 2021, published 2025)

Key:
[1] = target: T1, KMT9 (Homo sapiens, UniProt Q9Y5N5); assay: KMT9 methyltransferase inhibition assay, 3H-SAM scintillation (entries 1-154); type: biochemical; details: entries 1-154: 3H-SAM assay, 25 nM KMT9, 5 μM ETF1
T1 sequence (Q9Y5N5 1-214): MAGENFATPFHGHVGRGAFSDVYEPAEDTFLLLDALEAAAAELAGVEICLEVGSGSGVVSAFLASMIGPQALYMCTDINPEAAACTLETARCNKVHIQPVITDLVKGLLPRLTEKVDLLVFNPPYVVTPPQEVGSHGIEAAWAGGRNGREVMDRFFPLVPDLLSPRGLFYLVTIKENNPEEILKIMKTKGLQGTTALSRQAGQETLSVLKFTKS
T1 sequence (Q9UI30 1-120 isoform Q9UI30-2 partner): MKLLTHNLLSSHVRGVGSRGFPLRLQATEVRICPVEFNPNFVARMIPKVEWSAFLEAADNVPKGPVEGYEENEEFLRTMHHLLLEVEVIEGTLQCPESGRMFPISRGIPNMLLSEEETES
Procedure: The assay was carried out in 0.5 mL Eppendorf tubes in duplicates. Assay buffer consisted of 50 mM BTP, 1 mM MgCl2, 1 mM DTT and 0.01% Triton-X^100 at a pH of 8.5 (adjusted using 1 M HCl and 1 M NaOH). 20X inhibitor stock (in DMSO), 2X enzyme stock and 4X substrate mix (both in assay buffer) were prepared. The substrate mix consisted of Tritium-labelled S-adenosylmethionine (3H-SAM), S-adenosylmethionine (SAM) and eukaryotic peptide chain release factor subunit1 (Homo sapiens, residues 140-275)(ETF1). Final assay concentrations were set to 25 nM KMT9, 0.3 μM 3H-SAM, 0.7 µM SAM and 5 μM ETF1. […] 5 μL of 4x substrate mix was added to initiate the reaction. The final reaction volume was 20 μL. For the positive control, the compound of formula (I) was replaced by DMSO; for the negative control, the compound of formula (I) was replaced by DMSO and KMT9 was replaced by assay buffer. The reaction mix was incubated in an Eppendorf thermomixer comfort at 30° C. for 2 h, shaking at 300 rpm. The reaction was quenched using 5 μL 50% trichloroacetic acid (TCA) and incubated at 25° C. for 5 minutes. 22 μL of the mixture was transferred into 96-well MultiScreen@HTS FB filter plates (Merck KGaA, Darmstadt, Germany) and washed four times with 10% TCA and two times with 100% ethanol. The plate was dried overnight, the filters were transferred into individual 6 mL Pony Vials (Perkin Elmer Inc, Waltham, MA, USA) and incubated in 3 mL of Ultima Gold scintillation cocktail (Perkin Elmer Inc, Waltham, MA, USA) for 30 minutes. The scintillation signal was measured for 3x 1 min using TriCarb 2910 TR (Perkin Elmer) scintillation counter in 3H CPM mode (LL: 0, UL: 18.6). Inhibition was calculated using the following formula: […]
With xc: signal of compound, Xpos: mean signal of positive control, Xneg: mean signal of negative control. Data fitting was carried out by GraphPad 7.0 using nonlinear fit ([Inhibitor]vs. response-variable slope (four parameters)).
For the results of the methyltransferase inhibition assay shown as “Inhibition” in Table 1, “I” represents an IC50 less than 0.1 μM, “II” represents an IC50 equal or higher than 0.1 μM and less than 1 μM, “III” represents an IC50 equal or higher than 1 µM and less than 10 µM and “IV” represents an IC50 equal or higher than 10 µM

[2] = target: T1, KMT9; assay: Microscale thermophoresis (MST) KMT9 binding; details: microscale thermophoresis, His-tag labelled KMT9 (20 nM); read-out: MST
Procedure: To determine the binding affinity of the compounds according to the present invention and KMT9, microscale thermophoresis (MST) analysis was performed with a NanoTemper Monolith NT.115 instrument (NanoTemper Technologies GmbH). KMT9 was labelled with a RED-Tris-NTA labelling kit (NanoTemper Technologies GmbH) based on the manufacturer's instructions. Buffer including 25 mM HEPES (pH 7.5), 100 mM NaCl, 1 mM DTT and 0.05% Tween was used for the reaction buffer. Varying concentrations of the tested compounds of formula (I) as indicated in Table 1 were titrated against His-tag labelled KMT9 proteins (20 nM). Samples were loaded into standard Capillaries (NanoTemper Technologies GmbH) and MST measurements were performed using 40% MST power and 100% LED power. For each set of binding experiments, MST measurement was carried out with Binding Affinity module in MO.Control program under Nano-RED Excitation. Datasets were processed with the MO.Affinity Analysis software (NanoTemper Technologies GmbH).
For the results of the microscale thermophoresis (MST) assay shown as “MST” in Table 1, “A” represents a Kd of equal to or less than 10 nM (Kd≤10 nM); “B” represents a Kd of greater than 10 nM and equal to or less than 100 nM (10 nM<Kd<100 nM); “C” represents a Kd of greater than 100 nM and equal to or less than 1000 nM (100 nM<Kd ≤ 1000 nM); “D” represents a Kd of greater than 1000 nM (1000 nM<Kd).

[3] = target: T1, KMT9; assay: KMT9 thermal shift assay (SyproOrange); type: binding; details: ΔTm; 500 µM compound, 2 μM KMT9, 5X SO; read-out: Thermal shift
Procedure: The assay was carried out in 96-well Hard-Shell PCR plates (Bio-Rad Laboratories Inc.). Assay buffer consisted of 50 mM BTP, 1 mM MgCl2 and 1 mM DTT at a pH of 8.5 (adjusted using 1 M HCl and 1 M NaOH). 20X inhibitor stock (in DMSO), 2X enzyme stock and 4X SyproOrange (SO) stock (both in assay buffer) were prepared. 1 μL of 20X compound, 4 μL of assay buffer, 10 μL of 2X KMT9 and 5 μL of 4X SO were pipetted. For the no-compound control, 20X inhibitor stock was replaced by DMSO. The final volume was 20 μL. The plate was spun down at 700 rpm for 1 min using a Hettich UNIVERSAL 320 centrifuge and incubated at 25° C., shaking at 600 rpm. After incubation, the plate was spun down for 1 min at 700 rpm and measurement was conducted using a CFX96 Touch Real-Time PCR Detection System (Bio-Rad Laboratories Inc.). The plate was equilibrated at 20° C. for 4 min and then heated stepwise at a rate of 1° C. per 15 s until 95° C. After every step, fluorescence was measured in FRET mode. Calculation of melting points was conducted by a Boltzman sigmoidal model using GraphPad Prism 7.0.
For the results of the thermal shift assay shown as “Thermal shift” in Table 1, “++++” represents a ΔTm of greater 20 K, “+++” represents a ΔTm of greater than 15 K and less than or equal to 20 K (15 K<ΔTm≤20 K); “++” represents a ΔTm of greater than 10 K and less than or equal to 15 K (10 K<ΔTm ≤ 15 K); “+” represents a ΔTm of equal to or less than 10 K (ΔTm≤10 K).

IC50 [1] [nM] | Kd [2] [nM] | ΔTm at 500 µM [3] [°C] | SMILES
1000 to 10000 | 100 to 1000 | 10 to 15 | CCN(CCCNCCc1cccc(Oc2ccccc2)c1)C[C@H]1C[C@@H](n2ccc3c(NC)ncnc32)[C@H](O)[C@@H]1O [364 (268), (1S,2R,3R,5R)-3-((ethyl(3-((3-phenoxyphenethyl)amino)propyl)amino)methyl)-5-(4-(methylamino)-7H-pyrrolo[2,3-d]pyrimidin-7-yl) cyclopentane-1,2-diol]
> 10000 | > 1000 | ≤ 10 | CNc1ncnc2c1ccn2[C@@H]1C[C@H](CN2CCC23CCNC3)[C@@H](O)[C@H]1O (stereo partly drawn) [446 (318), (1S,2R,3R,5R)-3-{1,6-Diazaspiro[3.4]octan-1-ylmethyl}-5-[4-(methylamino)pyrrolo[2,3-d]pyrimidin-7-yl]cyclopentane-1,2-diol]
> 10000 | > 1000 | ≤ 10 | CNc1ncnc2c1ccn2[C@@H]1C[C@H](C#CCNCCc2ccccc2)[C@@H](O)[C@H]1O [426 (297), (1R,2S,3R,5R)-3-[4-(methylamino)pyrrolo[2,3-d]pyrimidin-7-yl]-5-{3-[(2-phenylethyl)amino]prop-1-yn-1-yl}cyclopentane-1,2-diol]
> 10000 | > 1000 | 10 to 15 | Nc1ncnc2c1c(Br)cn2[C@@H]1C[C@H](CNC[C@H]2CCCNC2)[C@@H](O)[C@H]1O [455 (327), (1R,2S,3R,5R)-3-(4-Amino-5-bromo-7H-pyrrolo[2,3-d]pyrimidin-7-yl)-5-(((((S)-piperidin-3-yl)methyl)amino)methyl)cyclopentane-1,2-diol]
100 to 1000 | 100 to 1000 | 10 to 15 | Nc1ncnc2c1c(-c1ccccc1)cn2[C@@H]1C[C@H](CNCCCNCCc2ccccc2)[C@@H](O)[C@H]1O [466 (340), (1R,2S,3R,5R)-3-{4-amino-5-phenylpyrrolo[2,3-d]pyrimidin-7-yl}-5-[({3-[(2-phenylethyl)amino]propyl}amino)methyl]cyclopentane-1,2-diol]
1000 to 10000 | 100 to 1000 | 10 to 15 | Nc1ncnc2c1c(C1CCOCC1)cn2[C@@H]1C[C@H](CNCCCNCCc2ccccc2)[C@@H](O)[C@H]1O [479 (353), (1R,2S,3R,5R)-3-(4-Amino-5-(tetrahydro-2H-pyran-4-yl)-7H-pyrrolo[2,3-d]pyrimidin-7-yl)-5-(((3-(phenethylamino)propyl)amino)methyl) cyclopentane-1,2-diol]
1000 to 10000 | 10 to 100 | 10 to 15 | CNc1ncnc2c1ccn2[C@@H]1C[C@H](C(=O)N(C)CCCNCCc2cccc(Oc3ccccc3)c2)[C@@H](O)[C@H]1O [351 (255), (1S,2R,3S,4R)-2,3-dihydroxy-N-methyl-4-(4-(methylamino)-7H-pyrrolo[2,3-a]pyrimidin-7-yl)-N-(3-((3-phenoxyphenethyl)amino)propyl) cyclopentane-1-carboxamide]
1000 to 10000 | 10 to 100 | 10 to 15 | Nc1ncnc2c1c(-c1nc(Cc3ccccc3)cs1)cn2[C@@H]1C[C@H](C2CCNCC2)[C@@H](O)[C@H]1O [Compound 488, (1R,2S,3R,5R)-3-(4-amino-5-(4-benzylthiazol-2-yl)-7H-pyrrolo[2,3-d]pyrimidin-7-yl)-5-(piperidin-4-yl)cyclopentane-1,2-diol]
> 10000 | 100 to 1000 | 10 to 15 | CCN(CCCNCCc1ccc2ccccc2c1)C[C@H]1C[C@@H](n2ccc3c(NC)ncnc32)[C@H](O)[C@@H]1O [375 (279), (1S,2R,3R,5R)-3-((ethyl(3-((2-(naphthalen-2-yl)ethyl)amino)propyl)amino)methyl)-5-(4-(methylamino)-7H-pyrrolo[2,3-d]pyrimidin-7-yl) cyclopentane-1,2-diol]
> 10000 | > 1000 | ≤ 10 | CNc1ncnc2c1ccn2[C@@H]1C[C@H](CNCCC(=O)NCCc2ccccc2)[C@@H](O)[C@H]1O (racemic) [434 (306), 3-((((1R,2R,3S,4R)-2,3-dihydroxy-4-(4-(methylamino)-7H-pyrrolo[2,3-d]pyrimidin-7-yl)cyclopentyl)methyl)amino)-N-phenethylpropanamide and 3-((((1S,2R,3S,4R)-2,3-dihydroxy-4-(4-(methylamino)-7H-pyrrolo[2,3-d]pyrimidin-7-yl)cyclopentyl)methyl)amino)-N-phenethylpropanamide]
> 10000 | > 1000 | ≤ 10 | CNc1ncnc2c1ccn2[C@@H]1C[C@H](CN(CCCNCCc2ccccc2)c2cnn(C)c2)[C@@H](O)[C@H]1O [441 (313), (1S,2R,3R,5R)-3-(((1-Methyl-1H-pyrazol-4-yl)(3-(phenethylamino)propyl)amino)methyl)-5-(4-(methylamino)-7H-pyrrolo[2,3-d]pyrimidin-7-yl) cyclopentane-1,2-diol]
> 10000 | 100 to 1000 | 10 to 15 | Nc1ncnc2c1c(Br)cn2[C@@H]1C[C@H](C(=O)NC[C@@H]2CCCNC2)[C@@H](O)[C@H]1O [454 (326), (1S,2R,3S,4R)-4-(4-Amino-5-bromo-7H-pyrrolo[2,3-d]pyrimidin-7-yl)-2,3-dihydroxy-N-(((R)-piperidin-3-yl)methyl) cyclopentane-1-carboxamide]
> 10000 | 100 to 1000 | ≤ 10 | Nc1ncnc2c1ncn2[C@@H]1O[C@H](C(=O)NCCCNCCc2ccccc2)[C@@H](O)[C@H]1O [301 (198), (2S,3S,4R,5R)-5-(6-amino-9H-purin-9-yl)-3,4-dihydroxy-N-(3-(phenethylamino)propyl) tetrahydrofuran-2-carboxamide]
